# Reference: PubChem BioAssay (NCI)
#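 Grown in 96-well plates, cells were treated for 48 hours with each compound at five concentrations. Insufficient inhibition: endpoint recorded as highest concentration tested. GI50 marks 50% less growth. TGI is the concentration that stops growth completely.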
# Tests used:
# Test in all cases: growth of human tumour cells (NCI), 48 h
# [1] = system: A549 NSCLC
# [2] = system: KM12 colon
# [3] = system: RPMI-8226 leukemia
# [4] = system: SR leukemia
# [5] = system: SF-295 CNS
# [6] = system: SK-OV-3 ovarian
# [7] = system: NCI-H460 lung
# [8] = system: U251 CNS
# [9] = system: SNB-19 CNS
# [10] = system: PC-3 prostate
# [11] = system: ACHN renal
# [12] = system: T-47D breast
# [13] = system: MDA-MB-231 breast
# [14] = system: OVCAR-5 ovarian
# [15] = system: HOP-62 NSCLC
# [16] = system: SF-268 CNS
# [17] = system: K-562 leukemia
# [18] = system: MCF7 breast
# [19] = system: UACC-257 melanoma
# [20] = system: DU-145 prostate
# [21] = system: LOX IMVI melanoma
# [22] = system: NCI/ADR-RES ovarian
# [23] = system: OVCAR-3 ovarian
# [24] = system: M14 melanoma
# [25] = system: UACC-62 melanoma
# [26] = system: UO-31 renal
# [27] = system: HS 578T breast
# [28] = system: CAKI-1 renal
# [29] = system: SK-MEL-5 melanoma
# [30] = system: OVCAR-8 ovarian
# [31] = system: SK-MEL-28 melanoma
# [32] = system: MOLT-4 leukemia
# [33] = system: NCI-H522 lung
# [34] = system: SK-MEL-2 melanoma
# [35] = system: EKVX NSCLC
# [36] = system: HCT-116 colon
# [37] = system: SW-620 colon
# [38] = system: MDA-MB-435
# [39] = system: HCC-2998 colon
# [40] = system: COLO 205 colon
# [41] = system: A498 renal
# [42] = system: OVCAR-4 ovarian
# [43] = system: BT-549 breast
# [44] = system: HOP-92 NSCLC
# [45] = system: TK-10 renal
# [46] = system: HT29 colon
# [47] = system: NCI-H23 lung
# [48] = system: SF-539 CNS
# [49] = system: NCI-H226 lung
# [50] = system: 786-0 renal
# [51] = system: SN12C renal
# [52] = system: CCRF-CEM leukemia
# [53] = system: HCT-15 colon
# [54] = system: RXF 393 renal
# [55] = system: SNB-75 CNS
# [56] = system: HL-60(TB) leukemia
# [57] = system: MALME-3M melanoma
# [58] = system: IGROV1 ovarian
structure (smiles),measurement,setting,value
O=C(Nc1ncc(Cc2ccccc2)s1)c1sc2ccccc2c1Cl,GI50,[1],853 nM
same,TGI,[1],> 50400 nM
same,GI50,[2],68.4 nM
same,TGI,[2],29000 nM
same,GI50,[3],1330 nM
same,TGI,[3],> 100000 nM
same,GI50,[4],522 nM
same,TGI,[4],> 100000 nM
same,GI50,[5],753 nM
same,TGI,[5],19600 nM
same,GI50,[6],2770 nM
same,TGI,[6],93700 nM
same,GI50,[7],253 nM
same,TGI,[7],18400 nM
same,GI50,[8],593 nM
same,TGI,[8],26000 nM
same,GI50,[9],777 nM
same,TGI,[9],59900 nM
same,GI50,[10],948 nM
same,TGI,[10],> 60400 nM
same,GI50,[11],496 nM
same,TGI,[11],48600 nM
same,GI50,[12],71.3 nM
same,TGI,[12],> 100000 nM
same,GI50,[13],1210 nM
same,TGI,[13],19300 nM
same,GI50,[14],2210 nM
same,TGI,[14],64200 nM
same,GI50,[15],1230 nM
same,TGI,[15],> 62400 nM
same,GI50,[16],1370 nM
same,TGI,[16],> 100000 nM
same,GI50,[17],434 nM
same,TGI,[17],> 100000 nM
same,GI50,[18],37 nM
same,TGI,[18],> 100000 nM
same,GI50,[19],1930 nM
same,TGI,[19],> 66500 nM
same,GI50,[20],2800 nM
same,TGI,[20],36500 nM
same,GI50,[21],1070 nM
same,TGI,[21],> 61800 nM
same,GI50,[22],573 nM
same,TGI,[22],35100 nM
same,GI50,[23],523 nM
same,TGI,[23],14400 nM
same,GI50,[24],448 nM
same,TGI,[24],32200 nM
same,GI50,[25],147 nM
same,TGI,[25],17800 nM
same,GI50,[26],1410 nM
same,TGI,[26],> 82300 nM
same,GI50,[27],537 nM
same,TGI,[27],29900 nM
same,GI50,[28],574 nM
same,TGI,[28],24500 nM
same,GI50,[29],63.4 nM
same,TGI,[29],691 nM
same,GI50,[30],2540 nM
same,TGI,[30],> 100000 nM
same,GI50,[31],2180 nM
same,TGI,[31],> 80400 nM
same,GI50,[32],680 nM
same,TGI,[32],> 100000 nM
same,GI50,[33],739 nM
same,TGI,[33],15800 nM
same,GI50,[34],534 nM
same,TGI,[34],> 64400 nM
same,GI50,[35],969 nM
same,TGI,[35],> 100000 nM
same,GI50,[36],469 nM
same,TGI,[36],> 76600 nM
same,GI50,[37],476 nM
same,TGI,[37],> 100000 nM
same,GI50,[38],250 nM
same,TGI,[38],805 nM
same,GI50,[39],552 nM
same,TGI,[39],12300 nM
same,GI50,[40],2160 nM
same,TGI,[40],> 100000 nM
same,GI50,[41],286 nM
same,TGI,[41],5590 nM
same,GI50,[42],3320 nM
same,TGI,[42],79400 nM
same,GI50,[43],2210 nM
same,TGI,[43],40000 nM
same,GI50,[44],1230 nM
same,TGI,[44],45300 nM
same,GI50,[45],4010 nM
same,TGI,[45],69100 nM
same,GI50,[46],449 nM
same,TGI,[46],> 63100 nM
same,GI50,[47],2250 nM
same,TGI,[47],> 61600 nM
same,GI50,[48],497 nM
same,TGI,[48],5230 nM
same,GI50,[49],2200 nM
same,TGI,[49],> 46600 nM
same,GI50,[50],1320 nM
same,TGI,[50],40100 nM
same,GI50,[51],1240 nM
same,TGI,[51],> 100000 nM
same,GI50,[52],593 nM
same,TGI,[52],> 100000 nM
same,GI50,[53],44.9 nM
same,TGI,[53],> 100000 nM
same,GI50,[54],665 nM
same,TGI,[54],10600 nM
same,GI50,[55],368 nM
same,TGI,[55],12900 nM
same,GI50,[56],375 nM
same,TGI,[56],> 100000 nM
same,GI50,[57],809 nM
same,TGI,[57],24300 nM
same,GI50,[58],903 nM
same,TGI,[58],61500 nM
